Experiments:
U937 cells = assay: H2O2 induced corticosteroid insensitivity in U937 cells (TNF-α induced IL-8, ELISA); format: cell-based; conditions: H2O2 treated U937 macrophages; addition of 1 μM Compound A; FIG. 1B
Protocol: U937 cells were maintained in RPMI-1640 with 15 mM glutamine. 6×10^6 cells were taken in a T-25 flask with 12 ml of fresh medium and treated with 1 μM of Compound A and incubated at 37° C. and 5% CO2 for 30 min.
H2O2 was added at a final concentration of 200 μM to the above cells and incubated for 2 h.
Cells were pelleted and resuspended in serum free media and seeded on to a 96-well plate at 0.15×10^6 cells per well in 100 μl.
50 μl of 3× dexamethasone at desired concentrations was added and incubated for 45 min
50 μl of 4× concentration of TNF-α was added such that the final concentration was 10 ng/ml, to induce IL-8 and incubated for 18 h.
Supernatant was collected and IL-8 was estimated by ELISA.
IL-8 strips were plated with fresh or thawed supernatants and incubated at room temperature for 2 h or overnight at 4° C.
Contents were discarded and strips were washed with 200 μl of wash buffer per well for 15 s for a total of 5 times.
Strips were blotted dry and 100 μl per well of 1× detection antibody was added and incubated at room temperature for 1 h.
Strips were blotted dry and 100 μl per well of 1× Avidin-HRP antibody was added and incubated at room temperature for 30 min.
Contents were discarded and the strips were washed with 200 μl per well of wash buffer for 15 s for a total of 5 times. […]
Absorbance was read on a plate reader at A450 nm and A570 nm.

[1] = system: mononuclear cells isolated from peripheral blood; assay: LPS-induced IL-1β, IL-6 and GM-CSF release in mononuclear cells isolated from healthy and asthmatic patients; format: cell-based, human; conditions: single agent
Protocol: Mononuclear cells were isolated from peripheral blood of healthy volunteers, and asthmatic patients. Briefly, PBMC were isolated from peripheral venous blood by standard laboratory procedures. Peripheral venous blood was mixed with dextran 500 at 3% (in 0.9% saline) in a proportion of 2:1. This mixture was incubated at room temperature for 30 min until sedimentation of erythrocytes. The upper phase was carefully collected and layered on Ficoll-Paque Histopaque 1077 density gradient in a proportion of 3:1. (PBMC) layer was isolated and quantified.
For the single agent study, isolated mononuclear cells were incubated with Compound A, or vehicle for 30 minutes before incubation with or without LPS for 6 hours in standard cell culture conditions (37° C. and 5% CO2). For the combination experiments, the same procedure was followed except that cells were incubated with Compound A (1 μM) in combination with fluticasone (0.1 nM). Supernatants were collected to measure IL-1β, IL-6, and GM-CSF. Data was analysed using Graphpad Prism.

[2] = asthmatic patients, LPS stimulus 6 hours

reduction in IC50 of dexamethasone for IL-8 release (U937 cells): 3 fold
SMILES: Cc1ccccc1C(=O)Nc1ccc(-n2nc(C(F)(F)F)cc2C2CC2)nc1 [Compound A, N-{6-[5-cyclopropyl-3-(trifluoromethyl)-1H-pyrazol-1-yl]pyridin-3-yl}-2-methyl benzamide]
percentage maximum effect (% Emax), GM-CSF release [1, 2]: 80±16.4% | percentage maximum effect (% Emax), IL1β release [1, 2]: 68.9±23.7% | percentage maximum effect (% Emax), IL6 release [1, 2]: 52.5±30.3% | % Emax for IL1β compared with asthmatic cells ([1]; healthy donors, LPS stimulus): higher % Emax

From patent publication US20220040162A1, “COMPOSITIONS COMPRISING A CRAC INHIBITOR AND A CORTICOSTEROID AND METHODS OF USE THEREOF” (Rhizen Pharmaceuticals AG, priority 2018, published 2022)
